From ChEMBL document CHEMBL1681769, “Tetrahydroquinolin-3-yl carbamate glucocorticoid receptor agonists with reduced PEPCK activation” (Bioorg Med Chem Lett, 2011)

Legend:
Glucocorticoid receptor [1] = target: T1, Glucocorticoid receptor (Homo sapiens, UniProt P04150)
T1 sequence (P04150 whole entry): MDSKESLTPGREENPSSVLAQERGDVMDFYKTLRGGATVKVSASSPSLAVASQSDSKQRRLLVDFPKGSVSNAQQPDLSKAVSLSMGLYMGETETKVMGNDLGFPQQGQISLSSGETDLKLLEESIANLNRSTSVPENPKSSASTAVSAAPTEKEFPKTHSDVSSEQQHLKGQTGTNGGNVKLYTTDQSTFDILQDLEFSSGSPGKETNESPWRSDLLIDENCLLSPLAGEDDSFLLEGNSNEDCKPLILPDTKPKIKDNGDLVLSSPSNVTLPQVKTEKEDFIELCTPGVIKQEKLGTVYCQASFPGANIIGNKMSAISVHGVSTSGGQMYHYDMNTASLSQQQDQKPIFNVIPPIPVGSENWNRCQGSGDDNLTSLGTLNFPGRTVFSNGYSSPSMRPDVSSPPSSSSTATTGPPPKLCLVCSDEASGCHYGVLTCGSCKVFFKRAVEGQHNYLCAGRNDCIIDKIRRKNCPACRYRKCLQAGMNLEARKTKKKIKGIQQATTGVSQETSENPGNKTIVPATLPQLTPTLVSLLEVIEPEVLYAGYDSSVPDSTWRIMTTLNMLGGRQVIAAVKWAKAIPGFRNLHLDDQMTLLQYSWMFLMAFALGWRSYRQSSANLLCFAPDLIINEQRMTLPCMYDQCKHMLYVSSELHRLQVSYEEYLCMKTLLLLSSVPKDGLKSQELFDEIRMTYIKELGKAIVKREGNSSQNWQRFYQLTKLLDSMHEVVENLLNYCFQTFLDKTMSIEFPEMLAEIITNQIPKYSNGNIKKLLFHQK
Description: Displacement of radiolabeled Dexamethasone from GR

Glucocorticoid receptor [2] = target: T1, Glucocorticoid receptor; assay type: functional, cell-based, CV-1
Description: Agonist activity at GR expressed in african green monkey CV1 cells transfected with luciferase gene linked to MMTV promoter assessed as induction of luciferase transactivation activity

Glucocorticoid receptor [3] = target: T1, Glucocorticoid receptor; assay type: functional, cell-based, H4IIEC3
Description: Agonist activity at GR expressed in rat H4IIEC3 cells assessed as induction of PEPCK transactivation by luciferase reporter gene assay

Glucocorticoid receptor [4] = target: T1, Glucocorticoid receptor; assay type: cell-based, HepG2
Description: Transrepression activity at GR expressed in IL-1beta- and TNFalpha-stimulated HepG2 cells assessed as inhibition of NFKB- or AP-1 mediated E-selectin transcription by luciferase reporter gene assay

Glucocorticoid receptor [5] = target: T1, Glucocorticoid receptor; assay type: cell-based, NHDF
Description: Transrepression activity at GR expressed in NHDF cells assessed as IL-1beta-mediated IL-6 transcription by ELISA

Progesterone receptor = target: T2, Progesterone receptor (Homo sapiens, UniProt P06401); experiment: Binding affinity to progesterone receptor
T2 sequence (P06401 whole entry): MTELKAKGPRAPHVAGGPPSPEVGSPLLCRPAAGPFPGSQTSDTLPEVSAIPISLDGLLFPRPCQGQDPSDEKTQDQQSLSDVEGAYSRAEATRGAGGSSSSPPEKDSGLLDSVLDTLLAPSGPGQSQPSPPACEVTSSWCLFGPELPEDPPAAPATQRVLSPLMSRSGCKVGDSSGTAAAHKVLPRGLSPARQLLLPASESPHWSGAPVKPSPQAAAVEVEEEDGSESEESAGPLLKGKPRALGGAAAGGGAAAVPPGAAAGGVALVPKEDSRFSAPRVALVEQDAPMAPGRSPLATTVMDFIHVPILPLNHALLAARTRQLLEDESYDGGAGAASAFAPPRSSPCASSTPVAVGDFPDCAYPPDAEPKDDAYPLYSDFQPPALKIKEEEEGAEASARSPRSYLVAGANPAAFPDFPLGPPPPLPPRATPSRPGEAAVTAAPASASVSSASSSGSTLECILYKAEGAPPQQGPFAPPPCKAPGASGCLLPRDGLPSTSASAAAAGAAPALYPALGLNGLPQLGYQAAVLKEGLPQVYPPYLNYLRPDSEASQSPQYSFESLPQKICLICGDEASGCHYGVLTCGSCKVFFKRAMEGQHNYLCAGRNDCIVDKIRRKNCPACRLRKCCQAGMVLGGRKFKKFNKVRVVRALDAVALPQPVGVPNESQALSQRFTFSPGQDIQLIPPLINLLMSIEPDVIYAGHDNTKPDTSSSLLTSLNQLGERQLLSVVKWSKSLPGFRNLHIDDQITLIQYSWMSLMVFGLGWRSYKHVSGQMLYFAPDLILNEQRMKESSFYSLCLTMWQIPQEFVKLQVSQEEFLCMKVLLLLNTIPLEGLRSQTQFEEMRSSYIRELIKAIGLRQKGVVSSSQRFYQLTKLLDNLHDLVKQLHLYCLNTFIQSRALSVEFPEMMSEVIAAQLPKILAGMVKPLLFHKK

[6] = target: T3, Mineralocorticoid receptor (Homo sapiens, UniProt P08235); experiment: Binding affinity to mineralocorticoid receptor
T3 sequence (P08235 whole entry): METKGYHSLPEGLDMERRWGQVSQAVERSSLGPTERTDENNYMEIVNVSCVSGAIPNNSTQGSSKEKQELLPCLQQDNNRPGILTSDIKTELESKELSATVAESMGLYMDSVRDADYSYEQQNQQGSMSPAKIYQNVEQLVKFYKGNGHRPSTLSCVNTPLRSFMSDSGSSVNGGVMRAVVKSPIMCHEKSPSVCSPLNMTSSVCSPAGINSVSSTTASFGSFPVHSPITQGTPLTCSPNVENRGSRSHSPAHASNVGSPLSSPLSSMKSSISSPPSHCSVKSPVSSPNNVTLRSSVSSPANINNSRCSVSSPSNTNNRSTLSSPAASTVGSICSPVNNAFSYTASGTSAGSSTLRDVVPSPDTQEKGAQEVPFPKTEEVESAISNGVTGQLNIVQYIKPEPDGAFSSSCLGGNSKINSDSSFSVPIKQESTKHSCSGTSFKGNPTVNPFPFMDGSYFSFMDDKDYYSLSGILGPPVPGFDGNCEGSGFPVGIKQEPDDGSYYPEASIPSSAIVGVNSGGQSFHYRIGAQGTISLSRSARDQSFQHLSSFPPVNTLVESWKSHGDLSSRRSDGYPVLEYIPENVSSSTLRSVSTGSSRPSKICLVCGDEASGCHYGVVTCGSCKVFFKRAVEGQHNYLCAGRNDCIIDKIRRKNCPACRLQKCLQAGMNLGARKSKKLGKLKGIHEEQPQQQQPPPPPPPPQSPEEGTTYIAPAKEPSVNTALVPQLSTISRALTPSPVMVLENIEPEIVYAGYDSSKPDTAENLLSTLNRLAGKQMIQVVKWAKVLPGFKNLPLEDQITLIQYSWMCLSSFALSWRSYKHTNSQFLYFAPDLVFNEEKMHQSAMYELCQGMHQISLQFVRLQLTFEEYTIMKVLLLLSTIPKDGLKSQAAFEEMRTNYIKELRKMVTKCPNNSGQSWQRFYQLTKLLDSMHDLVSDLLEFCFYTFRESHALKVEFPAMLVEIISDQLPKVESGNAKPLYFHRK

Row | Structure (SMILES) | Ki (Glucocorticoid receptor [1]) [nM] | EC50 (Glucocorticoid receptor [2]) [nM] | EC50 (Glucocorticoid receptor [3]) [nM] | IC50 (Glucocorticoid receptor [4]) [nM] | IC50 (Glucocorticoid receptor [5]) [nM] | Ki (Progesterone receptor) [nM] | Ki [6] [nM]
1 | C[C@H]1c2c(cc(F)c(-c3cccc4cc[nH]c34)c2F)NC(C)(C)[C@@H]1OC(=O)Nc1cccc(C#N)c1 (racemic) | 13.7 | 24 | 287 | 13 | 38 | 662 | 1470
2 | C[C@H]1c2c(cc(F)c(-c3cccc4cc[nH]c34)c2F)NC(C)(C)[C@@H]1OC(=O)Nc1ccc2c(c1)OCO2 | 12.2 | 18 | 874 | 8.5 | 50 |  | 
3 | COC(=O)c1ccc(NC(=O)O[C@@H]2[C@@H](C)c3c(cc(F)c(-c4cccc5cc[nH]c45)c3F)NC2(C)C)cc1 | 30 | 15 | 267 | 29 | 16 |  | 
4 | C[C@H]1c2c(cc(F)c(-c3cccc4c(Cl)c[nH]c34)c2F)NC(C)(C)[C@@H]1OC(=O)NCc1ccccc1 (racemic) | 6.8 | 17 | 454 | 44 | 40 | 160 | 656
5 | C[C@H]1c2c(cc(F)c(-c3cccc4c(Cl)c[nH]c34)c2F)NC(C)(C)[C@@H]1OC(=O)Nc1ccccc1 | 7.6 | 7.6 | 379 | 9.1 | 33 |  | 
6 | COc1ccc(NC(=O)O[C@@H]2[C@@H](C)c3c(cc(F)c(-c4cccc5c(Cl)c[nH]c45)c3F)NC2(C)C)cc1Cl | 6.7 | 5.8 | 283 | 5.7 | 12 |  | 
7 | C[C@H]1c2c(cc(F)c(-c3cccc4cc[nH]c34)c2F)NC(C)(C)[C@@H]1O (racemic) |  |  | 98 |  |  |  | 
8 | CNC(=O)O[C@@H]1[C@@H](C)c2c(cc(F)c(-c3cccc4c(Cl)c[nH]c34)c2F)NC1(C)C (racemic) | 2.2 | 21 | 463 | 12 | 52 |  | 
9 | CNC(=O)O[C@@H]1[C@@H](C)c2c(cc(F)c(-c3cccc4cc[nH]c34)c2F)NC1(C)C (racemic) | 3 | 39 | 199 | 10 | > 1000 |  | 
10 | C[C@H]1c2c(cc(F)c(-c3cccc4cc[nH]c34)c2F)NC(C)(C)[C@@H]1OC(=O)N1CCCCC1 (racemic) | 132 | > 1000 |  | > 1000 |  |  | 
11 | CC(=O)c1cccc(NC(=O)O[C@@H]2[C@@H](C)c3c(cc(F)c(-c4cccc5cc[nH]c45)c3F)NC2(C)C)c1 (racemic) | 9.4 | 29 | 333 | 49 | 22 | 680 | 3170
12 | C[C@H]1c2c(cc(F)c(-c3cccc4c(Cl)c[nH]c34)c2F)NC(C)(C)[C@@H]1OC(=O)NC1CCCCC1 (racemic) | 4.3 | 70 | 435 | 15 | 23 | 93 | 2250
13 | C[C@H]1c2c(cc(F)c(-c3cccc4cc[nH]c34)c2F)NC(C)(C)[C@@H]1OC(=O)N(C)c1ccccc1 | 14.3 | > 1000 |  | > 1000 | > 1000 |  | 
14 | C[C@H]1c2c(cc(F)c(-c3cccc4cc[nH]c34)c2F)NC(C)(C)[C@@H]1OC(=O)Nc1ccc(C#N)cc1 | 16.1 | 21 |  | 10 | 16 |  | 
15 | C[C@H]1c2c(cc(F)c(-c3cccc4cc[nH]c34)c2F)NC(C)(C)[C@@H]1OC(=O)Nc1ccc(N(C)C)cc1 | 5.1 | 3.5 | 361 | 8.4 | 39 |  | 
16 | C[C@H]1c2c(cc(F)c(-c3cccc4c(Cl)c[nH]c34)c2F)NC(C)(C)[C@@H]1OC(=O)Nc1ccc(C#N)cc1 | 13.7 | 5.1 | 272 | 8.1 | 5 |  | 
17 | C[C@H]1c2c(cc(F)c(-c3cccc4cc[nH]c34)c2F)NC(C)(C)[C@@H]1OC(=O)Nc1ccccc1 | 6.2 | 105 |  | 40 | > 1000 |  | 
18 | COc1ccc(NC(=O)O[C@@H]2[C@@H](C)c3c(cc(F)c(-c4cccc5cc[nH]c45)c3F)NC2(C)C)cc1Cl | 11.6 | 11 | 687 | 7.5 | 31 |  | 
19 | C[C@H]1c2c(cc(F)c(-c3cccc4cc[nH]c34)c2F)NC(C)(C)[C@@H]1OC(=O)Nc1ccc(Cl)cc1 | 70 | 178 |  | 44 | 29 |  | 
